Laboratory results reported in patent publication US20260258373A1, “PEPTIDE TAGS FOR PHAGE IMAGING” (priority 2022, published 2026).
Read-outs that look alike come from different tables or passages of the source. Cy5 = cyanine 5 dye

Tests used:
Good Vibes phage (GV) [1] = test: GVBP-Cy5 ELISA; type: binding; conditions: GV 0.1, 1, 10 or 63 μg coated; 0.05 μg peptide; fluorescence 647/665 nm; FIG. 5C
Protocol: Applicant then added 0.05 μg of GVBP-Cy5 peptide and incubated for 1 h. […] The fluorescence was measured using an Infinite 200 Rx plate reader with excitation and emission wavelengths of 647 and 665 nm, respectively, and a gain of 50.

P. aeruginosa cells = test: Flow cytometry of GVBP-Cy5, cells without phages; type: binding, Pseudomonas aeruginosa
Protocol: (§1) An overnight culture of P. aeruginosa was diluted 100-fold in fresh medium. The culture was incubated at 37° C. to reach OD600~0.2 before adding ~10^11 pfu of GV to the cells and incubating at 37° C. for 15 min. The cells were pelleted by centrifugation (6000 g, 15 min, at room temperature), washed once with 800 μL TM buffer (10 mM Tris base, 5 μM CaCl2), 10 mM MgSO4, pH 7.4) and resuspended in 200 μL of the same buffer. Applicant added GVBP-Cy5 (2×10^13 units) and incubated the mixture for 15 min at room temperature before centrifugal washing three times with 0.1% PBST (6000 g, 5 min, at room temperature). The pellet was resuspended in 200 μL TM buffer and the binding of GVBP-Cy5 to GV was analyzed using an Accuri C6 Plus flow cytometer (BD Biosciences). A total of 30,000 events were collected for each analysis.

[2] = test system: GV bound to P. aeruginosa cells; test: Flow cytometry of GVBP-Cy5, cells with phages; type: binding, Good Vibes phage on Pseudomonas aeruginosa
Protocol: as §1

Good Vibes phage (GV) [3] = conditions: GV 1, 10 or 65 μg coated; 0.01 μg peptide; absorbance 450 nm; FIG. 5B
Protocol: GV (1, 10 or 65 μg) was coated onto Nunc Maxisorp flat-bottom 96-well plates and incubated for 1 h at room temperature, shaking at 400 rpm. All incubation and washing steps were carried out at room temperature, shaking at 400 rpm, unless otherwise stated. The wells were blocked for 1 h with 300 μL 5% (w/v) BSA followed by washing once with 0.1% PBST for 5 min. Applicant then added 0.01 μg of GVBP-biotin peptide to the wells and incubated for 1 h. The wells were then washed three times with 0.1% PBST for 5 min each before adding streptavidin HRP conjugate (ab7403) diluted 1:10,000 and incubating for 30 min. The wells were washed another three times as above before adding 100 μL of TMB substrate and incubating for 5-10 min in the dark. The reaction was stopped by adding 50 μL 2M H2SO4 and the absorbance was measured at 450 nm using an Infinite 200 Rx plate reader as described above.

BSA = BSA (Bos taurus, UniProt P02769); test: Cross-reactivity ELISA against BSA (negative control); type: binding, bovine; conditions: peptide displayed on monoclonal phage, cross-reactivity assay
Protocol: (§2) A Nunc Maxisorp flat-bottom 96-well plate was coated with 6×10^9 pfu GV per well (in TBS, pH 8) and incubated overnight at 4° C. Plates coated with 2% (w/v) bovine serum albumin (BSA) were used as negative controls. Next day, the plates were blocked with 2% (w/v) BSA at room temperature for 1 h, shaking at 800 rpm. The plates were then washed with 0.1% TBST (3×1 min) before adding 20 μL of amplified phage from each biopanning cycle to each well in 5% (w/v) BSA. After further incubation at room temperature for 1 h, shaking at 800 rpm, the plates were washed with 0.5% TBST (3×5 min) before adding 100 μL horseradish peroxidase (HRP)-conjugated anti-M13 monoclonal antibody (Abcam ab50370, diluted 1:500) and incubating at room temperature for 1 h, shaking at 800 rpm. After further washes in 0.5% TBST (3×5 min), Applicant added 100 μL of the tetramethylbenzidine (TMB) substrate (Thermo Fisher Scientific) to each well. The plates were incubated in the dark for 10 min and the absorbance was measured at 370 nm using an Infinite 200 Rx plate reader (Tecan Life Sciences) with 25 flashes in 96-well flat-bottom plate mode.
(§3) The protocol was similar to the polyclonal ELISA. Applicant coated wells with 10 μg cowpea mosaic virus (CPMV) or 1010 GV particles to assess their binding activity.

Matera (MAT) = test: Monoclonal phage ELISA (cross-reactivity / validation) against MAT; type: binding, Matera (family Myoviridae); conditions: peptide displayed on monoclonal phage; cross-reactivity assay
[4] = test system: cowpea mosaic virus (CPMV); test: Cross-reactivity ELISA against CPMV; type: binding; conditions: peptide displayed on monoclonal phage; cross-reactivity assay
Protocol: as §2, §3

Good Vibes phage (GV) [5] = test: Monoclonal phage ELISA (cross-reactivity / validation) against GV; type: binding; conditions: peptide displayed on monoclonal phage; cross-reactivity assay
Protocol: as §2
The protocol was similar to the polyclonal ELISA. […] Monoclonal phages differing in absorbance between GV and BSA by at least 0.3 units were isolated for DNA sanger sequencing (Eurofins Genomics). […]

Good Vibes phage (GV) [6] = test: competitive ELISA, GVER2738 against GVER2738_SYBR on GV-coated wells and on BSA-coated wells

H2N-WDLPPIGRLSGNGGGSK/Cy5/—CO2H (H-WDLPPIGRLSGNGGGSK(Cy5)-OH; also: C-terminal Cy5, attachment not given here) [GVBP-Cy5]
intensity of signal of bound peptide with increasing amounts of GV coating the plates (Good Vibes phage (GV) [1]): became stronger
fluorescent signal (median fluorescence intensity, MFI) (P. aeruginosa cells; in the absence of phage, FIG. 6B): weaker signal
APC+ shift (P. aeruginosa cells; population containing P. aeruginosa cells without phages, peptide added, FIG. 6A panel iii): 7.6%
fluorescent signal (median fluorescence intensity, MFI) ([2]; cells and phages plus GVBP-Cy5, FIG. 6B): strongest fluorescent signal
APC+ shift ([2]; population containing both P. aeruginosa cells and GV phages, in the presence of GVBP-Cy5, FIG. 6A panel iv): 15.4%
binding to GV by flow cytometry ([2]; summary statement): significant binding

H2N-WDLPPIGRLSGNGGGSK/biotin/—CO2H [GVBP-biotin]
intensity of signal of bound peptide with increasing amounts of GV coating the plates (Good Vibes phage (GV) [3]): became stronger

THLPPIMRNLQF
ELISA signal against BSA (BSA): not against CPMV or BSA
ELISA signal against MAT (Matera (MAT)): strong signal
ELISA signal against CPMV [4]: not against CPMV or BSA
ELISA signal against GV (Good Vibes phage (GV) [5]): strong signal

WDLPPIGRLSGN [H2N-WDLPPIGRLSGN—CO2H]
ELISA signal against BSA (BSA): not against CPMV or BSA
ELISA signal against MAT (Matera (MAT)): strong signal
ELISA signal against CPMV [4]: not against CPMV or BSA
ELISA signal against GV (Good Vibes phage (GV) [5]): strong signal

B1: monoclonal phage GVER2738 displaying the peptide … (peptide)
peptide: WDLPPIGRLSGN
modifications: not checked
fold of KD value, GV against BSA (Good Vibes phage (GV) [6]): 12 times
